One assay has as its target T1, HMG-CoA reductase (Rattus norvegicus, UniProt P51639).
T1 construct: solubilized enzyme preparations from rat liver microsomes; from tissue; host or cells: rat liver microsomes (cholestyramine-induced), solubilized
T1 sequence (P51639 1-887): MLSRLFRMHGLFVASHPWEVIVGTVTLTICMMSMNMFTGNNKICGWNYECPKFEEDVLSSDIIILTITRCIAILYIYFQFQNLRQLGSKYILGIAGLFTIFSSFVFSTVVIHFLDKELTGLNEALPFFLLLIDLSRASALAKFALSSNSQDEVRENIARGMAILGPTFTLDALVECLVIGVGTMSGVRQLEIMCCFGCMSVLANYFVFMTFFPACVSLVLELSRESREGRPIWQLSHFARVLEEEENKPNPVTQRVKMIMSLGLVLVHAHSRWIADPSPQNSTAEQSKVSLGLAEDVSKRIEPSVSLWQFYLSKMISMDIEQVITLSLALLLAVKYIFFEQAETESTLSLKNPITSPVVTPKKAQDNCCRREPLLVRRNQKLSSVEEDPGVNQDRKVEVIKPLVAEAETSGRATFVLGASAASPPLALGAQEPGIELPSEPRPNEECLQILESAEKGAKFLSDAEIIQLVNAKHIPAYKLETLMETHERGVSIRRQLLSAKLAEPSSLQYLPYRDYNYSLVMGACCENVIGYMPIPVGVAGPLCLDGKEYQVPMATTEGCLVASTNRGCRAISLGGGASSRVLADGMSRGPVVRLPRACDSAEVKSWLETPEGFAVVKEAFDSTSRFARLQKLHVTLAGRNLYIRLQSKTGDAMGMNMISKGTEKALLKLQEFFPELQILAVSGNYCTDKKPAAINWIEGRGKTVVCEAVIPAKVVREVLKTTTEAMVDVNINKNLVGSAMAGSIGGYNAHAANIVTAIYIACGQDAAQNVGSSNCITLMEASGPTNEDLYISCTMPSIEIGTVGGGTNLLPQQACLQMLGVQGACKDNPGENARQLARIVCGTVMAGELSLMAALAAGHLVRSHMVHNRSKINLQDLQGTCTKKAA
In words: HMG-CoA reductase activity in solubilized enzyme preparations from rat liver microsomes (14C-HMG-CoA). Format: biochemical. The conditions noted are these: Table 1; solubilized rat liver microsomal enzyme; mean of 3 parallel samples; read-out: IC50 (molar concentration of the compound required for 50% inhibition of HMG-CoA reductase). The procedure:
The HMG-CoA reductase activity was measured on solubilized enzyme preparations from rat liver microsomes induced, after a changeover in the day/night rhythm, with cholestyramine (® CUEMID). The substrate used was (S,R)-^14 C-HMG-CoA, and the NADPH concentration was maintained during the incubation by a regenerating system. ^14 C-Mevalonate was separated from the substrate and other products (for example ^14 C-HMG) by column elution, the elution profile of each individual sample being determined. ^3 H-Mevalonate was not always included in the determination because relative data on the inhibitory effects were required. […] Each individual value was the mean formed from 3 parallel samples. The significance of the mean differences between product-free and product-containing samples was assessed using the t test.

Assay [1] concerns HEP-G2 cells (cholesterol biosynthesis). Nature of the assay: Inhibition of cholesterol biosynthesis in cell cultures of HEP-G2 cells (14C-acetate into 14C-cholesterol). The conditions noted are these: Homo sapiens, HepG2, Table 2, preincubation for example 1 hour, 14C-acetate for example 3 hours, read-out: IC50 (concentration of the compound which brings about 50% inhibition of cholesterol biosynthesis). Type of assay: cell-based. The procedure:
Monolayers of HEP-G2 cells in lipoprotein-free nutrient medium were preincubated with appropriate concentrations of the test substances for a defined time (for example 1 hour), the labeled precursor, for example sodium ^14 C-acetate was added and then the incubation was continued (for example for 3 hours). Addition of an internal standard (^3 H-cholesterol) was followed by alkaline hydrolysis of some of the cells. The lipids were extracted from the hydrolyzed cells using chloroform/methanol. Carrier cholesterol was added to this lipid mixture which was then subjected to preparative thin-layer chromatography, the cholesterol band was visualized with iodine vapor and then isolated, and the amount of ^14 C-cholesterol formed from the ^14 C-precursor was determined by scintigraphy. Cellular protein was determined in an aliquot of the cells, so that it is possible to calculate the amount of ^14 C-cholesterol formed per mg of cellular protein in unit time.
in nmol of ^14 C-cholesterol/mg of cell protein
in comparison with the solvent control.
Using the method described above, the following values for the inhibition of cholesterol biosynthesis (in HEP-G2 cells) were determined for the compounds according to the invention, for example (the IC50 /mol/liter is the concentration of the compound which brings about 50% inhibition of cholesterol biosynthesis) (Tab. 2): […]

Assay [2] concerns cholesterol. As to conditions: literature; cited from earlier work.
The subject of assay [3] is cholesterol. The conditions noted are these: literature; cited from earlier work. This is another data set of the same source.
In assay [4] the test system is 3-hydroxy-3-methylglutaryl-coenzyme A reductase (HMG-CoA reductase). The conditions noted are these: cited from earlier work.

Counter-ions that a name gives are not always drawn.

Turning to `CC(C)c1cc(-c2ccccc2)nc(-c2ccc(F)cc2)c1/C=C/[C@@H](O)C[C@@H](O)CC(=O)O` [Example 13f], the IC50 at HMG-CoA reductase was determined as 4 nM.

For the compound `CC(C)c1nc(-c2ccccc2)nc(-c2ccc(F)cc2)c1/C=C/[C@@H]1C[C@@H](O)CC(=O)O1` [Example 11o], the IC50 in assay [1] is 5 nM.

As to `Cc1ccc(C)c(-c2cc(-c3ccc(F)cc3)c(/C=C/[C@@H](O)C[C@@H](O)CC(=O)O)c(C(C)C)n2)c1` [Example 13i], the IC50 on HMG-CoA reductase came to 5 nM.

`CC(O)(CC(=O)O)CC(=O)O` [3-Hydroxy-3-methylglutaric acid]: the “cholesterol-lowering action in the rat” value in the assay with cholesterol [2] is recorded as “significant cholesterol-lowering action”. Besides, the “cholesterol-lowering action in human experiments” value with cholesterol [3] is given as “significant cholesterol-lowering action”.

In the case of `CC(C)c1nc(-c2ccccc2)cc(-c2ccc(F)cc2)c1/C=C/[C@@H](O)C[C@@H](O)CC(=O)O` [Example 13e], at HMG-CoA reductase, the IC50 worked out at 2.9 nM.

`CC(C)(C)c1nc(-c2ccccc2)cc(-c2ccc(F)cc2)c1/C=C/[C@@H](O)C[C@@H](O)CC(=O)O` [Example 13g]: the IC50 at HMG-CoA reductase was found to be 18 nM.

For the compound `Cc1cc(-c2ccc(Cl)cc2)c(/C=C/[C@@H](O)C[C@@H](O)CC(=O)O)c(C)n1` [Example 13b], the IC50 at HMG-CoA reductase was 94 nM.

Turning to `Cc1cc(-c2ccc(F)cc2)c(/C=C/[C@@H]2C[C@@H](O)CC(=O)O2)c(C(C)C)n1` [Example 11d], the IC50 in assay [1] amounted to 50 nM.

As for `Cc1nc(C)c(/C=C/[C@@H](O)C[C@@H](O)CC(=O)O)c(-c2ccc(F)cc2)n1` [Example 13k], the IC50 at HMG-CoA reductase was determined as 500 nM.

Regarding `CC[C@H](C)C(=O)O[C@H]1CCC=C2C=C[C@H](C)[C@H](CC[C@@H]3C[C@@H](O)CC(=O)O3)[C@H]21` [compactin], the “inhibition of HMG-CoA reductase (literature)” value in assay [4] is recorded as “inhibition”.

Take `CC(C)c1nc(-c2ccccc2)nc(-c2ccc(F)cc2)c1/C=C/[C@@H](O)C[C@@H](O)CC(=O)O` [Example 13o]: the IC50 at HMG-CoA reductase came to 3 nM.

Take `CC(C)c1nc(C(C)(C)C)cc(-c2ccc(F)cc2)c1/C=C/[C@@H](O)C[C@@H](O)CC(=O)O` [Example 13r]: on HMG-CoA reductase, the IC50 amounted to 1.2 nM.

As for `Cc1cc(-c2ccc(F)cc2)c(/C=C/[C@@H](O)C[C@@H](O)CC(=O)O)c(C(C)C)n1` [Example 13d], the IC50 on HMG-CoA reductase was 9.1 nM.

Consider `Cc1cc(-c2ccc(F)cc2)c(/C=C/[C@@H](O)C[C@@H](O)CC(=O)O)c(C)n1` [Example 13a, (E)- and (Z)-(3R,5S)-3,5-Dihydroxy-7-(2,6-dimethyl-4-(4-fluorophenyl)pyridin-3-yl)-6-heptenoic acid potassium salts], for which the IC50 at HMG-CoA reductase was found to be 260 nM.

On to `Cc1nc(-c2ccccc2)cc(-c2ccc(F)cc2)c1/C=C/[C@@H]1C[C@@H](O)CC(=O)O1` [Example 11c], for which the IC50 in assay [1] came to 90 nM.

For `Cc1nc(-c2ccccc2)cc(-c2ccc(F)cc2)c1/C=C/[C@@H](O)C[C@@H](O)CC(=O)O` [Example 13c], at HMG-CoA reductase, the IC50 came out at 38 nM.

`Cc1nc(C)c(/C=C/[C@@H](O)C[C@@H](O)CC(=O)O)c(-c2ccc(Cl)cc2)n1` [Example 13l]: on HMG-CoA reductase, the IC50 turned out to be 600 nM.

As for `CC(C)c1nc(-c2ccccc2)cc(-c2ccc(F)cc2)c1/C=C/[C@@H]1C[C@@H](O)CC(=O)O1` [Example 11e], in assay [1], the IC50 is 5 nM.

As to `CC(C)c1nc(C2CCCCC2)cc(-c2ccc(F)cc2)c1/C=C/[C@@H](O)C[C@@H](O)CC(=O)O` [Example 13s], the IC50 on HMG-CoA reductase amounted to 3.7 nM.

`O=C(O)C[C@H](O)C[C@H](O)/C=C/c1c(-c2ccc(F)cc2)cc(-c2ccccc2)nc1C1CC1` [Example 13ac]: the IC50 at HMG-CoA reductase was found to be 1 nM.

Consider `CC(C)c1nc(-c2ccc(F)cc2)cc(-c2ccc(F)cc2)c1/C=C/[C@@H](O)C[C@@H](O)CC(=O)O` [Example 13j], for which the IC50 at HMG-CoA reductase was 2.3 nM.

For `CC(C)c1cc(-c2ccc(F)cc2)c(/C=C/[C@@H](O)C[C@@H](O)CC(=O)O)c(C(C)C)n1` [Example 13q], at HMG-CoA reductase, the IC50 is 2.5 nM.

As for `CC(C)c1nc(-c2ccc(O)cc2)cc(-c2ccc(F)cc2)c1/C=C/[C@@H](O)C[C@@H](O)CC(=O)O` [Example 13ab], the IC50 at HMG-CoA reductase came out at 1.5 nM.

With `CC(C)c1nc(-c2ccc(F)cc2)nc(-c2ccc(F)cc2)c1/C=C/[C@@H](O)C[C@@H](O)CC(=O)O` [Example 13w], the IC50 at HMG-CoA reductase is 0.9 nM.

`CC(C)c1nc(-c2ccc(F)cc2)c(/C=C/[C@@H](O)C[C@@H](O)CC(=O)O)c(C(C)C)n1` [Example 13v]: the IC50 on HMG-CoA reductase came to 2.5 nM.
